Like-named read-outs stand apart in the source and are kept apart here.
Tests used:
[1] = tested on: subjects with chronic shingles and post-herpetic neuralgia (PHN); assay: Topical reduced glutathione in a liposomal carrier in chronic shingles / post-herpetic neuralgia; assay type: in vivo, human
Text: Most the subjects at the time of the first visit reported significant depression and suicidal thoughts. Most subjects also reported giving up hope. […] The self-rated pain averaged a 7, but many subjects reported that when a break-out was occurring, the pain could spike to a 10. Videos and pictures were taken where and when appropriate with proper releases documented.

[2] = tested on: subject with diabetic peripheral neuropathy (DN); assay: Topical and oral rGSH in diabetic peripheral neuropathy (case study); details: for outcome of diabetic neuropathy: person, 13 weeks of therapy
[3] = tested on: fibromyalgia syndrome (FMS) subjects; details: 43 subjects; rGSH with low copper diet and support product
Text: 43 fibromyalgia subjects underwent dietary changes supplements including: (a) a low copper diet, (b) a support product containing molybdenum, boron, zinc chelate, pyridoxine, N-Acetyl L-Cysteine, L-serine and L-glutamine, and (c) rGSH.

[4] = tested on: subjects with chemotherapy-induced peripheral neuropathy (CIPN)
Description: Subjects were treated with topical and oral rGSH in a natural liposomal carrier after initial consultation. Subjects began treatment prior to their second visit. Follow-up consultations with subjects occurred weekly to monthly according to symptoms and needs.
Procedures for measuring CIPN were based on interviews performed by a medical professional with subjects. The physician measured nerve sensitivity in some of the subjects using in-office medical instruments.

[5] = tested on: subject diagnosed with tardive dyskinesia (TD)
Description: Reduced glutathione was administered to the subject 5 times per day in a solution in the amount of about 18.25 mg per spray or about 91.25 mg per administration. The subject cleaned the area of application with a disinfectant wipe before topical application of the reduced glutathione. The topical rGSH was administered in 5 sprays of rGSH for a total dosage of about 91.25 mg. The administered rGSH dried for about 30 seconds before the subject was re-clothed. The facial movements and body movements of the subject were filmed once per week to analyze progression or loss of TD symptoms.
Topical rGSH was prescribed for 5 applications of 5 sprays each day to: (a) their right arm, (b) right jaw and masseter area, and (c) their spine. The total amount of administered rGSH was a total of 25 squirts per day (which is approximately 456 mg of rGSH via a Glutathione supplement) as applied by the nursing staff.

[6] = tested on: subject with partial and full thickness burn lesions
Description: The subject was treated with topical applications of rGSH. The subject was administered the rGSH 5-8 times a day over a 3-month period.
A subject had accidentally burned themself on an outdoor grill. The subject was treated with rGSH at 5-8 times a day with topical application. The subject was also treated with Cephalexin 500 mg in case of infection.

[7] = after 35 days of rGSH treatment

Nc1nc2c(ncn2COCCO)c(=O)[nH]1 [acyclovir, reference compound]
effect of earlier chronic medication on shingles/PHN pain ([1]; chronic doses before rGSH treatment): without substantial ameliorative effect

C[C@]12CC[C@H]3[C@@H](CCC4=CC(=O)CC[C@@]43C)[C@@H]1CC[C@@H]2O [injectable testosterone, testosterone, reference compound]
effect on the subject's issues (insulin sensitivity, muscle strength, neuropathy) ([2]; modest dose, before rGSH treatment): did not have a substantial effect

N[C@@H](CCC(=O)N[C@@H](CS)C(=O)NCC(=O)O)C(=O)O [rGSH, reduced glutathione]
FMS symptoms [3]: substantial resolution
pain in fibromyalgia subjects [3]: substantially reduced pain
time to major resolution of symptoms ([4]; Patient 5-C): ≤ 3 days
pain in the feet ([4]; Patient 5-C, Day 63): no longer felt pain in the feet
CIPN symptoms ([4]; Patient 5-D, Day 31): substantial decrease in symptoms
feeling better since starting treatment ([4]; Patient 5-D, Day 38): about 70%
decrease in symptoms ([4]; Patient 5-D, Day 52): 80%
CIPN symptoms resolved, as reported by the subject ([4]; Subject 5-A, Day 12, only took rGSH orally): about 40%
CIPN symptoms ([4]; Subject 5-B, Day 7): improved symptoms
improvement of symptoms since using rGSH ([4]; Subject 5-B, Day 42): 50%
resolution of CIPN symptoms ([4]; Subject 5-B, Day 84): 70%
resolution of CIPN symptoms ([4]; Subject 5-B, Day 112): 70%
resolution of CIPN symptoms ([4]; Subject 5-B, Day 245, rGSH stopped for a few months): 70%
outcome of TD ([5]; after 10 weeks of treatment): resolved completely
interval between involuntary jaw movements (masseter muscles) ([5]; after 21 days of topical rGSH, about 456 mg/day, before treatment about every 1-2 seconds): 4 to 5 s
interval between involuntary arm movements ([5]; after 21 days of topical rGSH, before treatment about every 1-2 seconds): 4 to 5 s
ambulation ([5]; after 42 days): no longer used assistance for walking up and down stairs
interval between facial and arm movements ([5]; after 42 days of topical rGSH): ~10 s
pain in shoulder, back and jaw ([5]; after 42 days, compared with the 21 day period): substantially decreased
involuntary facial or arm movement ([5]; after 70 days): no longer had involuntary facial or arm movement
pain ([5]; after 70 days): substantially free of pain
TD symptoms ([5]; after 70 days of rGSH administration): substantially free of symptoms
time to nearly complete resolution of symptoms ([1]; one subject with shingles and PHN for about nine years): ≤ 34 min
share of subjects with nearly complete resolution only over a more extended period ([1]; over a hundred patients and volunteers with shingles): Less than 5%
extended period to nearly complete resolution ([1]; the subjects with slower response): 2 to 5 days
burn pain ([6]; 10 weeks after the burn): no longer had any pain
burn pain ([6]; after 21 days of rGSH treatment): tolerable
infection of the burn [6, 7]: No infection had occurred
state of the wound [6, 7]: dead skin and eschar were gone and new skin has started to epithelialize
state of the wound ([6]; after 49 days of treatment): nearly healed
burn pain within an hour of application ([6]; day of the burn): nearly dissipated
time until pain was subsiding after topical application ([6]; day of the burn): ≤ 30 min
course of burn healing ([6]; topical rGSH 5-8 times per day over a 3-month period): Healing commenced immediately with minimal pain, minimal scarring, no infection, and minimal drainage
renal or liver functions ([2]; after 13 weeks of therapy): No effect
HBA1C ([2]; after 13 weeks of therapy, 10.0% before): 10.1%
neuropathy in the hands ([2]; oral and topical rGSH, weekly examination): complete resolution in their hands in the first few weeks
outcome of diabetic neuropathy [2]: resolved substantially
outcome of diabetic neuropathy ([2]; listed as stable rGSH): resolved
diabetic neuropathy in seven other subjects ([2]; seven other subjects treated with stable rGSH): complete resolution

— patent US20240009265A1, “METHODS OF TREATMENT COMPRISING STABLE REDUCED GLUTATHIONE” (Blue Sky Innovation, LLC, priority 2020, published 2024)
